Results from patent US7138361B2, “Herbicidal heterocycles” (E. I. du Pont de Nemours and Company, priority 2000, dated 2006).

Legend:
Format in all cases: in vivo
[1] = tested on: morningglory (Ipomoea hederacea); assay: Test C preemergence
Outline: (§1)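 Plants held in greenhouse for 12–14 days post-application are scored by eye against controls on a 0–100 control scale. Application timing: preemergence on sown seed, or postemergence on 2–18 cm plants.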

kochia (Kochia scoparia) = assay: Test C preemergence
Outline: as §1

corn (Zea mays) = assay: Test C preemergence
Outline: as §1

[2] = tested on: giant foxtail (Setaria faberii); assay: Test C preemergence
Outline: as §1

[3] = tested on: Surinam grass (Brachiaria decumbens); assay: Test C preemergence
Outline: as §1

[4] = tested on: cocklebur (Xanthium strumarium); assay: Test C preemergence
Outline: as §1

[5] = tested on: goosegrass (Eleusine indica); assay: Test C preemergence
Outline: as §1

[6] = tested on: lambsquarters (Chenopodium album); assay: Test C preemergence
Outline: as §1

[7] = tested on: pigweed (Amaranthus retroflexus); assay: Test C preemergence
Outline: as §1

[8] = tested on: velvetleaf (Abutilon theophrasti); assay: Test C preemergence
Outline: as §1

Nightshade = assay: Test C preemergence
[9] = tested on: yellow nutsedge (Cyperus esculentus); assay: Test C preemergence
Outline: as §1

[10] = tested on: woolly cupgrass (Eriochloa villosa); assay: Test C preemergence
Outline: as §1

[11] = tested on: bermudagrass (Cynodon dactylon); assay: Test C preemergence
Outline: as §1

[12] = tested on: johnsongrass (Sorghum halepense); assay: Test C preemergence
Outline: as §1

Sunflower [13] = assay: Test C preemergence; conditions: Rate 125 g/ha; scale 0 to 100, 0 no effect, 100 complete control
[14] = tested on: crabgrass (Digitaria sanguinalis); assay: Test C preemergence
Outline: as §1

soybean (Glycine max) = assay: Test C preemergence
Outline: as §1

[15] = tested on: common ragweed (Ambrosia elatior); assay: Test C preemergence
Outline: as §1

[16] = tested on: barnyardgrass (Echinochloa crus-galli); assay: Test C flooded paddy test; conditions: for Barnyardgrass plant response rating: Flooded Paddy, scale 0 to 100, 0 no effect, 100 complete control; for Plant response rating, Barnyardgrass: flooded paddy test, scale 0 to 100 (0 no effect, 100 complete control)
Outline: (§2)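 Visually assessed vs untreated controls 12–14 d post-treatment (greenhouse). Flooded paddy plants were at the 2-leaf stage; scale 0 = no effect, 100 = complete control.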

rice (Oryza saliva) = assay: Test C flooded paddy test; conditions: for Rice plant response rating: Flooded Paddy, scale 0 to 100, 0 no effect, 100 complete control
Outline: as §2

Sunflower [17] = assay: Test C preemergence; conditions: Rate 500 g/ha, visual evaluation after 12 to 14 days
[18] = Rate 125 g/ha, scale 0 to 100, 0 no effect, 100 complete control
[19] = preemergence, Rate 62 g/ha, scale 0 to 100
[20] = preemergence, Rate 500 g/ha, visual evaluation after 12 to 14 days
[21] = preemergence, Rate 250 g/ha, scale 0 to 100, 0 no effect, 100 complete control

Q: `CCCC(C)c1ccn(C2CCN(c3ccc(Cl)c(OC)c3)C2=O)n1` (centres unmarked) [Compound 121] was tested. Which “Plant response rating, Morningglory” value [1, 18] did it give?
A: 10

Q: What about the “Plant response rating, Morningglory” value [1, 19] of the same compound?
A: 0

Q: What about the “Plant response rating (0 to 100), Morningglory” value [1, 20] of the same compound?
A: 70

Q: And the “Plant response rating, Morningglory” value [1, 21]?
A: 50

Q: What about the “Plant response rating, Kochia” value (kochia (Kochia scoparia); [18]) of the same compound?
A: 100

Q: And the “Plant response rating, Kochia” value (kochia (Kochia scoparia); [19])?
A: 100

Q: What about the “Plant response rating (0 to 100), Kochia” value (kochia (Kochia scoparia); [20]) of the same compound?
A: 100

Q: And the “Plant response rating, Kochia” value (kochia (Kochia scoparia); [21])?
A: 100

Q: What about the “Plant response rating, Corn” value (corn (Zea mays); [18]) of the same compound?
A: 20

Q: What about the “Plant response rating, Corn” value (corn (Zea mays); [19]) of the same compound?
A: 0

Q: What about the “Plant response rating (0 to 100), Corn” value (corn (Zea mays); [20]) of the same compound?
A: 90

Q: And the “Plant response rating, Corn” value (corn (Zea mays); [21])?
A: 70

Q: And the “Plant response rating, Foxtail, Giant” value [2, 18]?
A: 100

Q: And the “Plant response rating, Foxtail, Giant” value [2, 19]?
A: 20

Q: And the “Plant response rating (0 to 100), Foxtail, Giant” value [2, 20]?
A: 100

Q: What about the “Plant response rating, Foxtail, Giant” value [2, 21] of the same compound?
A: 60

Q: And the “Plant response rating, Surinam grass” value [3, 18]?
A: 80

Q: And the “Plant response rating, Surinam grass” value [3, 19]?
A: 20

Q: What about the “Plant response rating (0 to 100), Surinam grass” value [3, 20] of the same compound?
A: 100

Q: What about the “Plant response rating, Surinam grass” value [3, 21] of the same compound?
A: 100

Q: And the “Plant response rating, Cocklebur” value [4, 18]?
A: 20

Q: What about the “Plant response rating, Cocklebur” value [4, 19] of the same compound?
A: 0

Q: And the “Plant response rating (0 to 100), Cocklebur” value [4, 20]?
A: 100

Q: What about the “Plant response rating, Cocklebur” value [4, 21] of the same compound?
A: 50

Q: What about the “Plant response rating, Goosegrass” value [5, 18] of the same compound?
A: 100

Q: And the “Plant response rating, Goosegrass” value [5, 19]?
A: 100

Q: What about the “Plant response rating (0 to 100), Goosegrass” value [5, 20] of the same compound?
A: 100

Q: And the “Plant response rating, Goosegrass” value [5, 21]?
A: 100

Q: What about the “Plant response rating, Lambsquarters” value [6, 18] of the same compound?
A: 100

Q: What about the “Plant response rating, Lambsquarters” value [6, 19] of the same compound?
A: 100

Q: And the “Plant response rating (0 to 100), Lambsquarters” value [6, 20]?
A: 100

Q: And the “Plant response rating, Lambsquarters” value [6, 21]?
A: 100

Q: And the “Plant response rating, Pigweed” value [7, 18]?
A: 50

Q: And the “Plant response rating, Pigweed” value [7, 19]?
A: 20

Q: What about the “Plant response rating (0 to 100), Pigweed” value [7, 20] of the same compound?
A: 100

Q: And the “Plant response rating, Pigweed” value [7, 21]?
A: 60

Q: What about the “Plant response rating, Velvetleaf” value [8, 18] of the same compound?
A: 20

Q: What about the “Plant response rating, Velvetleaf” value [8, 19] of the same compound?
A: 0

Q: What about the “Plant response rating (0 to 100), Velvetleaf” value [8, 20] of the same compound?
A: 100

Q: And the “Plant response rating, Velvetleaf” value [8, 21]?
A: 100

Q: And the “Plant response rating, Nightshade” value (Nightshade; Rate 62 g/ha, scale 0 to 100)?
A: 10

Q: And the “Plant response rating, Nightshade” value (Nightshade; [18])?
A: 90

Q: What about the “Plant response rating, Nightshade” value (Nightshade; Rate 250 g/ha, scale 0 to 100, 0 no effect, 100 complete control) of the same compound?
A: 100

Q: What about the “Plant response rating, Nutsedge” value [9, 18] of the same compound?
A: 0

Q: And the “Plant response rating, Nutsedge” value [9, 19]?
A: 0

Q: And the “Plant response rating (0 to 100), Nutsedge” value [9, 20]?
A: 0

Q: What about the “Plant response rating, Nutsedge” value [9, 21] of the same compound?
A: 0

Q: And the “Plant response rating, Cupgrass, Woolly” value [10, 18]?
A: 100

Q: What about the “Plant response rating, Cupgrass, Woolly” value [10, 19] of the same compound?
A: 80

Q: And the “Plant response rating (0 to 100), Cupgrass, Woolly” value [10, 20]?
A: 100

Q: What about the “Plant response rating, Cupgrass, Woolly” value [10, 21] of the same compound?
A: 100

Q: And the “Plant response rating, Bermudagrass” value [11, 18]?
A: 100

Q: And the “Plant response rating, Bermudagrass” value [11, 19]?
A: 100

Q: What about the “Plant response rating (0 to 100 where 0 is no effect and 100 is complete control), Bermudagrass” value [11, 20] of the same compound?
A: 100

Q: What about the “Plant response rating, Bermudagrass” value [11, 21] of the same compound?
A: 100

Q: What about the “Plant response rating, Johnsongrass” value [12, 18] of the same compound?
A: 90

Q: What about the “Plant response rating, Johnsongrass” value [12, 19] of the same compound?
A: 60

Q: What about the “Plant response rating (0 to 100), Johnsongrass” value [12, 20] of the same compound?
A: 100

Q: What about the “Plant response rating, Johnsongrass” value [12, 21] of the same compound?
A: 100

Q: And the “Plant response rating, Sunflower” value (Sunflower [13])?
A: 30

Q: And the “Plant response rating, Crabgrass” value [14, 18]?
A: 100

Q: What about the “Plant response rating, Crabgrass” value [14, 19] of the same compound?
A: 100

Q: What about the “Plant response rating (0 to 100), Crabgrass” value [14, 20] of the same compound?
A: 100

Q: What about the “Plant response rating, Crabgrass” value [14, 21] of the same compound?
A: 100

Q: What about the “Plant response rating, Soybean” value (soybean (Glycine max); [18]) of the same compound?
A: 60

Q: What about the “Plant response rating, Soybean” value (soybean (Glycine max); [19]) of the same compound?
A: 0

Q: What about the “Plant response rating (0 to 100), Soybean” value (soybean (Glycine max); [20]) of the same compound?
A: 100

Q: And the “Plant response rating, Soybean” value (soybean (Glycine max); [21])?
A: 90

Q: What about the “Plant response rating, Ragweed, Common” value [15, 18] of the same compound?
A: 90

Q: And the “Plant response rating, Ragweed, Common” value [15, 19]?
A: 0

Q: And the “Plant response rating (0 to 100), Ragweed, Common” value [15, 20]?
A: 100

Q: And the “Plant response rating, Ragweed, Common” value [15, 21]?
A: 90

Q: And the “Barnyardgrass plant response rating” value ([16]; Rate 250 g/ha)?
A: 20

Q: And the “Barnyardgrass plant response rating” value ([16]; Rate 500 g/ha)?
A: 80

Q: What about the “Plant response rating, Barnyardgrass” value ([16]; Rate 62 g/ha) of the same compound?
A: 0

Q: What about the “Plant response rating, Barnyardgrass” value ([16]; Rate 125 g/ha) of the same compound?
A: 20

Q: And the “Rice plant response rating” value (rice (Oryza saliva); Rate 250 g/ha)?
A: 0

Q: What about the “Rice plant response rating” value (rice (Oryza saliva); Rate 500 g/ha) of the same compound?
A: 0

Q: And the “Plant response rating, Rice” value (rice (Oryza saliva); flooded paddy test, Rate 125 g/ha, scale 0 to 100 (0 no effect, 100 complete control))?
A: 0

Q: What about the “Plant response rating (0 to 100), Sunflower” value (Sunflower [17]) of the same compound?
A: 70
